melting point: 119 to 121 °C
Structure (SMILES): O=C(O)C(F)(F)c1ccc(-c2noc(C(F)(F)F)n2)cc1 [I-2, 2,2-difluoro-2-[4-[5-(trifluoromethyl)-1,2,4-oxadiazol-3-yl]phenyl]acetic acid]

Reference: patent publication US20230142542A1, “USE OF SUBSTITUTED 1,2,4-OXADIAZOLES FOR COMBATING PHYTOPATHOGENIC FUNGI” (BASF SE, priority 2020, published 2023)
